This passage reports relative viability results from the supplement of paper PMC10307832.

Experiment in all cases: relative viability (nuclei count vs DMSO), 5 days (fraction); higher = more cells survive
Compound in the experiment “NVP-TAE684 + Palbociclib”: COc1cc(N2CCC(N3CCN(C)CC3)CC2)ccc1Nc1ncc(Cl)c(Nc2ccccc2S(=O)(=O)C(C)C)n1 [NVP-TAE684] + CC(=O)c1c(C)c2cnc(Nc3ccc(N4CCNCC4)cn3)nc2n(C2CCCC2)c1=O [Palbociclib] (partner 0.5 µM)
Summed up: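 Lung cancer cell lines in 1536-well plates got either a single drug or a fixed anchor-drug dose together with five library-drug doses (not always all listed) in √10 steps, by pin tool, on the day after seeding. Nuclei were counted after 5 days, and relative viability is the treated-to-vehicle ratio of nuclei counts. Values are medians of duplicate plates.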

Compound in experiment [1]: C1=CC=C2C(=C1)N=C(S2)C(C#N)C3=NC(=NC=C3)NCCC4=CN=CC=C4
Summed up:
(§1)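 Viability here means nuclei in treated wells divided by nuclei in vehicle wells, reported as the median across plates. Only plates with control CV below 25% and at least one doubling passed. Lung cancer cell lines in 1536-well plates were exposed to five √10-spaced library-drug doses for 5 days and counted from 4× Hoechst images in MetaXpress.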

Compound in another experiment: C#Cc1cccc(Nc2ncnc3cc(OC)c(OCCCCCCC(=O)NO)cc23)c1 [CUDC-101]
The method in brief:
as §1

Compound in a further experiment: COc1cc2/c(=N/c3ccc(Br)cc3F)nc[nH]c2cc1OCC1CCN(C)CC1 [Vandetanib]
The method in brief:
as §1

For the cell line UMC-11, the relative viability with NVP-TAE684 + Palbociclib (first compound 0.2 µM) amounted to 0.344; in the experiment with NVP-TAE684 + Palbociclib (first compound 0.6325 µM) it was 0.326; in the experiment with NVP-TAE684 + Palbociclib (first compound 2 µM), 0.26; in experiment [1] (0.005 µM), 0.884; in experiment [1] (0.01581 µM), 1.01; in experiment [1] (0.05 µM), 0.96. Further, the relative viability in experiment [1] (0.1581 µM) is 1.16; in experiment [1] (0.5 µM) it was 0.967; with CUDC-101 (0.01 µM) it was 1.03; with CUDC-101 (0.03162 µM), 0.957; in the experiment with CUDC-101 (0.1 µM) it was 0.927; in the experiment with CUDC-101 (0.3162 µM), 0.705. Besides, the relative viability in the experiment with CUDC-101 (1 µM) turned out to be 0.31; in the experiment with Vandetanib (0.02 µM) it was 0.94; in the experiment with Vandetanib (0.06325 µM), 0.901; with Vandetanib (0.2 µM), 0.9; in the experiment with Vandetanib (0.6325 µM) it was 0.91; in the experiment with Vandetanib (2 µM) it was 0.964.
